Test results taken from ChEMBL document CHEMBL1159154, “Synthesis of new potent leukotriene B4 antagonists and their biological properties. 2” (Bioorg Med Chem Lett, 1994).
Active and inactive are the calls of the source. The rule behind the calls is not given here.

Legend:
[1] = test system: Cavia porcellus; assay: In vivo inhibitory activity against LTB4-induced bronchoconstriction of guinea pig at dose of 5 mg/kg after 30 min of iv administration; Active; type: functional, organism-based; set-up: dose 5 mg/kg
[2] = Partition coefficient in n-octanol/phosphate buffer, at pH 7.4; type: physicochemical
[3] = organism: Homo sapiens; assay: Concentration required for inhibitory activity against human PMNLs chemotaxis; type: functional, organism-based; conditions: PMNL
[4] = test system: Cavia porcellus; assay: In vivo inhibitory activity against LTB4-induced bronchoconstriction of guinea pig at dose of 40 mg/kg after 60 min of po administration; relatively active; type: functional, organism-based; set-up: dose 40 mg/kg
[5] = test system: Cavia porcellus; assay: In vivo inhibitory activity against LTB4-induced bronchoconstriction of guinea pig at dose of 5 mg/kg after 10 min of iv administration; Active; type: functional, organism-based; set-up: dose 5 mg/kg
[6] = test system: Cavia porcellus; assay: In vivo inhibitory activity against LTB4-induced bronchoconstriction of guinea pig at dose of 5 mg/kg after 2 min of iv administration; Active; type: functional, organism-based; set-up: dose 5 mg/kg
[7] = test system: Cavia porcellus; assay: In vivo inhibitory activity against LTB4-induced bronchoconstriction of guinea pig at dose of 5 mg/kg after 10 min of iv administration; relatively active; type: functional, organism-based; set-up: dose 5 mg/kg
[8] = test system: Cavia porcellus; assay: In vivo inhibitory activity against LTB4-induced bronchoconstriction of guinea pig at dose of 40 mg/kg after 60 min of po administration; Active; type: functional, organism-based; set-up: dose 40 mg/kg
[9] = test system: Cavia porcellus; assay: In vivo inhibitory activity against LTB4-induced bronchoconstriction of guinea pig at dose of 5 mg/kg after 2 min of iv administration; relatively active; type: functional, organism-based; set-up: dose 5 mg/kg

logD [2]	IC50 [3] [nM]	Structure (SMILES)	Activity [6]	further results
-0.3	300	CCc1cc(C(C)=O)c(O)cc1OCc1cccc(C(=O)N[C@@H](CO)C(=O)O)n1	Active	Activity [1]: Active; Activity [4]: Weak activity; Activity [5]: Active
0.8	20	CCc1cc(C(C)=O)c(O)cc1OCc1cccc(C(=O)Nc2cccc(CC(=O)O)[n+]2[O-])n1	Active	Activity [1]: Active; Activity [5]: Active
–	700	CCc1cc(C(C)=O)c(O)cc1OCc1ccc(C(=O)Nc2nc(CC(=O)O)cs2)cn1	–	–
0.6	10000	CCc1cc(C(C)=O)c(O)cc1OCc1cncc(C(=O)Nc2nc(CC(=O)O)cs2)n1	Active	Activity [7]: Weak activity
1.9	300	CCc1cc(C(C)=O)c(O)cc1OCc1cccc(C(=O)Nc2nc(CC(=O)O)cs2)n1	–	Activity [7]: Weak activity
0.1	300	CCc1cc(C(C)=O)c(O)cc1OCc1cccc(C(=O)N(CC)CCC(=O)O)n1	Active	Activity [1]: Active; Activity [8]: Active; Activity [5]: Active
2.8	1000	CCc1cc(C(C)=O)c(O)cc1OCc1cccc(C(=O)N(CC)CCO)n1	Active	–
–	15000	CCc1cc(C(C)=O)c(O)cc1OCc1cccc(C(=O)NCCO)n1	–	–
–	12000	CCc1cc(C(C)=O)c(O)cc1OCc1cccc(C(=O)NCC(=O)O)n1	–	–
0.7	1000	CCc1cc(C(C)=O)c(O)cc1OCc1cccc(C(=O)NCCC(=O)O)n1	Active	Activity [5]: Active
–	3300	CCCc1c(OCCCOc2ccc(C(C)=O)c(OC)c2CCC)ccc2c1OC(C(=O)O)CC2 (stereo not drawn) [SC-41390]	–	–
1.1	800	CCc1cc(C(C)=O)c(O)cc1OCc1cccc(C(=O)Nc2cccc(CC(=O)O)n2)n1	–	–
-1.8	900	CCc1cc(C(C)=O)c(O)cc1OCc1cccc(C(=O)N[C@@H](CC(=O)O)C(=O)O)n1	–	Activity [9]: Weak activity; Activity [7]: Weak activity
–	5000	CCc1cc(C(C)=O)c(O)cc1OCc1cccc(C(=O)Nc2nc(CC(=O)O)cs2)c1	–	–
–	3000	CCc1cc(C(C)=O)c(O)cc1OCc1nccc(C(=O)Nc2nc(CC(=O)O)cs2)n1	–	–
